Measured values from patent US9125913B2, “Bcl-2-selective apoptosis-inducing agents for the treatment of cancer and immune diseases” (AbbVie Inc., priority 2008, dated 2015).

tested on: GST-Bcl-2; assay: TR-FRET binding assay, Bcl-2; settings: TR-FRET Ki values
Procedure, shortened: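 Compounds serially diluted in DMSO from 50 μM (2× starting concentration, 10% DMSO), mixed with GST-tagged protein, F-Bak peptide probe and Tb-labeled antibody, incubated 3 h at room temperature.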

First: CC1(C)CCC(CN2CCN(c3ccc(C(=O)NS(=O)(=O)c4ccc(NC5CCN(C6CCOCC6)CC5)c([N+](=O)[O-])c4)c(Oc4cccc5[nH]cnc45)c3)CC2)=C(c2ccc(Cl)cc2)C1 [EXAMPLE 417, 2-(1H-benzimidazol-4-yloxy)-4-(4-{[2-(4-chlorophenyl)-4,4-dimethylcyclohex-1-en-1-yl]methyl}piperazin-1-yl)-N-({3-nitro-4-[(1-tetrahydro-2H-pyran-4-ylpiperidin-4-yl)amino]phenyl}sulfonyl)benzamide]
Second: CN1CCC(Nc2ccc(S(=O)(=O)NC(=O)c3ccc(N4CCN(CC5=C(c6ccc(Cl)cc6)CC(C)(C)CC5)CC4)cc3Oc3cccc4[nH]cnc34)cc2[N+](=O)[O-])CC1 [EXAMPLE 418, 2-(1H-benzimidazol-4-yloxy)-4-(4-{[2-(4-chlorophenyl)-4,4-dimethylcyclohex-1-en-1-yl]methyl}piperazin-1-yl)-N-({4-[(1-methylpiperidin-4-yl)amino]-3-nitrophenyl}sulfonyl)benzamide]
The “Binding selectivity ratio (Bcl-XL Ki/Bcl-2 Ki)” value (“Binding selectivity ratio” for short) of the first is lower: 87.06 for the first, 404.7 for the second.

First: CC1(C)CCC(CN2CCN(c3ccc(C(=O)NS(=O)(=O)c4cnc(OCC5(F)CCN(CC#N)CC5)c(Cl)c4)c(Oc4cccc5[nH]ncc45)c3)CC2)=C(c2ccc(Cl)cc2)C1 [EXAMPLE 419, N-[(5-chloro-6-{[1-(cyanomethyl)-4-fluoropiperidin-4-yl]methoxy}pyridin-3-yl)sulfonyl]-4-(4-{[2-(4-chlorophenyl)-4,4-dimethylcyclohex-1-en-1-yl]methyl}piperazin-1-yl)-2-(1H-indazol-4-yloxy)benzamide]
Second: CC1(C)CCC(CN2CCN(c3ccc(C(=O)NS(=O)(=O)c4cnc(OCC5CCOC5)c(Cl)c4)c(Oc4cccc5[nH]ncc45)c3)CC2)=C(c2ccc(Cl)cc2)C1 (stereo not drawn) [EXAMPLE 420, 4-(4-{[2-(4-chlorophenyl)-4,4-dimethylcyclohex-1-en-1-yl]methyl}piperazin-1-yl)-N-{[5-chloro-6-(tetrahydrofuran-3-ylmethoxy)pyridin-3-yl]sulfonyl}-2-(1H-indazol-4-yloxy)benzamide]
The “Binding selectivity ratio” value of the first is lower: 1071 for the first, 1153 for the second.

Going from `CC1(C)CCC(CN2CCN(c3ccc(C(=O)NS(=O)(=O)c4cnc(OC[C@H]5CC[C@H](O)CC5)c(Cl)c4)c(Oc4cccc5[nH]ncc45)c3)CC2)=C(c2ccc(Cl)cc2)C1` [EXAMPLE 421, Trans-N-({5-chloro-6-[(4-hydroxycyclohexyl)methoxy]pyridin-3-yl}sulfonyl)-4-(4-{[2-(4-chlorophenyl)-4,4-dimethylcyclohex-1-en-1-yl]methyl}piperazin-1-yl)-2-(1H-indazol-4-yloxy)benzamide] to `CC1(C)CCC(CN2CCN(c3ccc(C(=O)NS(=O)(=O)c4cnc(OCC5CCOCC5)c(Cl)c4)c(Oc4cccc5[nH]ncc45)c3)CC2)=C(c2ccc(Cl)cc2)C1` [EXAMPLE 427, 4-(4-{[2-(4-chlorophenyl)-4,4-dimethylcyclohex-1-en-1-yl]methyl}piperazin-1-yl)-N-{[5-chloro-6-(tetrahydro-2H-pyran-4-ylmethoxy)pyridin-3-yl]sulfonyl}-2-(1H-indazol-4-yloxy)benzamide], the “Binding selectivity ratio” value rises from 2090 to 34408.55031.

First: CC1(C)CCC(CN2CCN(c3ccc(C(=O)NS(=O)(=O)c4cnc(O[C@@H]5CCN(CC(F)F)C5)c(Cl)c4)c(Oc4cccc5[nH]ncc45)c3)CC2)=C(c2ccc(Cl)cc2)C1 [EXAMPLE 422, N-[(5-chloro-6-{[(3R)-1-(2,2-difluoroethyl)pyrrolidin-3-yl]oxy}pyridin-3-yl)sulfonyl]-4-(4-{[2-(4-chlorophenyl)-4,4-dimethylcyclohex-1-en-1-yl]methyl}piperazin-1-yl)-2-(1H-indazol-4-yloxy)benzamide]
Second: CC1(C)CCC(CN2CCN(c3ccc(C(=O)NS(=O)(=O)c4cnc(O[C@@H]5CCN(C(CF)CF)C5)c(Cl)c4)c(Oc4cccc5[nH]ncc45)c3)CC2)=C(c2ccc(Cl)cc2)C1 [EXAMPLE 434, N-{[5-chloro-6-({(3R)-1-[2-fluoro-1-(fluoromethyl)ethyl]pyrrolidin-3-yl}oxy)pyridin-3-yl]sulfonyl}-4-(4-{[2-(4-chlorophenyl)-4,4-dimethylcyclohex-1-en-1-yl]methyl}piperazin-1-yl)-2-(1H-indazol-4-yloxy)benzamide]
The “Binding selectivity ratio” value of the first is higher: 4073 for the first, 1459 for the second.

Going from `CN(C)CC(=O)N1CCO[C@H](COc2ncc(S(=O)(=O)NC(=O)c3ccc(N4CCN(CC5=C(c6ccc(Cl)cc6)CC(C)(C)CC5)CC4)cc3Oc3cccc4[nH]cnc34)cc2Cl)C1` [EXAMPLE 423, 2-(1H-benzimidazol-4-yloxy)-N-[(5-chloro-6-{[(2S)-4-(N,N-dimethylglycyl)morpholin-2-yl]methoxy}pyridin-3-yl)sulfonyl]-4-(4-{[2-(4-chlorophenyl)-4,4-dimethylcyclohex-1-en-1-yl]methyl}piperazin-1-yl)benzamide] to `CN(C)CC(=O)N1CCO[C@@H](COc2ncc(S(=O)(=O)NC(=O)c3ccc(N4CCN(CC5=C(c6ccc(Cl)cc6)CC(C)(C)CC5)CC4)cc3Oc3cccc4[nH]cnc34)cc2Cl)C1` [EXAMPLE 424, 2-(1H-benzimidazol-4-yloxy)-N-[(5-chloro-6-{[(2R)-4-(N,N-dimethylglycyl)morpholin-2-yl]methoxy}pyridin-3-yl)sulfonyl]-4-(4-{[2-(4-chlorophenyl)-4,4-dimethylcyclohex-1-en-1-yl]methyl}piperazin-1-yl)benzamide], the “Binding selectivity ratio” value rises from 756.62 to 782.52.

Compared with `CN(C)CC(=O)N1CCO[C@H](COc2ncc(S(=O)(=O)NC(=O)c3ccc(N4CCN(CC5=C(c6ccc(Cl)cc6)CC(C)(C)CC5)CC4)cc3Oc3cccc4[nH]ncc34)cc2Cl)C1` [EXAMPLE 425, N-[(5-chloro-6-{[(2S)-4-(N,N-dimethylglycyl)morpholin-2-yl]methoxy}pyridin-3-yl)sulfonyl]-4-(4-{[2-(4-chlorophenyl)-4,4-dimethylcyclohex-1-en-1-yl]methyl}piperazin-1-yl)-2-(1H-indazol-4-yloxy)benzamide], `CN(C)CC(=O)N1CCO[C@H](CNc2ccc(S(=O)(=O)NC(=O)c3ccc(N4CCN(CC5=C(c6ccc(Cl)cc6)CC(C)(C)CC5)CC4)cc3Oc3cccc4[nH]cnc34)cc2[N+](=O)[O-])C1` [EXAMPLE 437, 2-(1H-benzimidazol-4-yloxy)-4-(4-{[2-(4-chlorophenyl)-4,4-dimethylcyclohex-1-en-1-yl]methyl}piperazin-1-yl)-N-{[4-({[(2R)-4-(N,N-dimethylglycyl)morpholin-2-yl]methyl}amino)-3-nitrophenyl]sulfonyl}benzamide] is lower in “Binding selectivity ratio” value: 1282 for the first, 51.4 for the second.

Compared with `CC1(C)CCC(CN2CCN(c3ccc(C(=O)NS(=O)(=O)c4ccc(N[C@@H]5CCN(CC#N)C5)c([N+](=O)[O-])c4)c(Oc4cccc5[nH]cnc45)c3)CC2)=C(c2ccc(Cl)cc2)C1` [EXAMPLE 428, 2-(1H-benzimidazol-4-yloxy)-4-(4-{[2-(4-chlorophenyl)-4,4-dimethylcyclohex-1-en-1-yl]methyl}piperazin-1-yl)-N-[(4-{[(3R)-1-(cyanomethyl)pyrrolidin-3-yl]amino}-3-nitrophenyl)sulfonyl]benzamide], `CC1(C)CCC(CN2CCN(c3ccc(C(=O)NS(=O)(=O)c4ccc(NCC5CN(CC#N)CCO5)c([N+](=O)[O-])c4)c(Oc4cccc5[nH]cnc45)c3)CC2)=C(c2ccc(Cl)cc2)C1` (stereo not drawn) [EXAMPLE 431, 2-(1H-benzimidazol-4-yloxy)-4-(4-{[2-(4-chlorophenyl)-4,4-dimethylcyclohex-1-en-1-yl]methyl}piperazin-1-yl)-N-{[4-({[4-(cyanomethyl)morpholin-2-yl]methyl}amino)-3-nitrophenyl]sulfonyl}benzamide] is lower in “Binding selectivity ratio” value: 5832 for the first, 677.36 for the second.

Going from `COCCOCCN1CC[C@@H](Nc2ccc(S(=O)(=O)NC(=O)c3ccc(N4CCN(CC5=C(c6ccc(Cl)cc6)CC(C)(C)CC5)CC4)cc3Oc3cccc4[nH]cnc34)cc2[N+](=O)[O-])C1` [EXAMPLE 429, 2-(1H-benzimidazol-4-yloxy)-4-(4-{[2-(4-chlorophenyl)-4,4-dimethylcyclohex-1-en-1-yl]methyl}piperazin-1-yl)-N-{[4-({(3R)-1-[2-(2-methoxyethoxy)ethyl]pyrrolidin-3-yl}amino)-3-nitrophenyl]sulfonyl}benzamide] to `CN(C)CC(=O)N1CC[C@@H](Nc2ccc(S(=O)(=O)NC(=O)c3ccc(N4CCN(CC5=C(c6ccc(Cl)cc6)CC(C)(C)CC5)CC4)cc3Oc3cccc4[nH]cnc34)cc2[N+](=O)[O-])C1` [EXAMPLE 430, 2-(1H-benzimidazol-4-yloxy)-4-(4-{[2-(4-chlorophenyl)-4,4-dimethylcyclohex-1-en-1-yl]methyl}piperazin-1-yl)-N-[(4-{[(3R)-1-(N,N-dimethylglycyl)pyrrolidin-3-yl]amino}-3-nitrophenyl)sulfonyl]benzamide], the “Binding selectivity ratio” value falls from 140.65 to 99.767.

First: CC1(C)CCC(CN2CCN(c3ccc(C(=O)NS(=O)(=O)c4ccc(NCC5CN(C6CC6)CCO5)c([N+](=O)[O-])c4)c(Oc4cccc5[nH]cnc45)c3)CC2)=C(c2ccc(Cl)cc2)C1 (stereo not drawn) [EXAMPLE 432, 2-(1H-benzimidazol-4-yloxy)-4-(4-{[2-(4-chlorophenyl)-4,4-dimethylcyclohex-1-en-1-yl]methyl}piperazin-1-yl)-N-[(4-{[(4-cyclopropylmorpholin-2-yl)methyl]amino}-3-nitrophenyl)sulfonyl]benzamide]
Second: CC1(C)CCC(CN2CCN(c3ccc(C(=O)NS(=O)(=O)c4ccc(NCC5CN(C6COC6)CCO5)c([N+](=O)[O-])c4)c(Oc4cccc5[nH]cnc45)c3)CC2)=C(c2ccc(Cl)cc2)C1 (stereo not drawn) [EXAMPLE 433, 2-(1H-benzimidazol-4-yloxy)-4-(4-{[2-(4-chlorophenyl)-4,4-dimethylcyclohex-1-en-1-yl]methyl}piperazin-1-yl)-N-[(3-nitro-4-{[(4-oxetan-3-ylmorpholin-2-yl)methyl]amino}phenyl)sulfonyl]benzamide]
The “Binding selectivity ratio” value of the first is higher: 408.8 for the first, 228.55 for the second.
